Results from patent US10472395B2, “Cyclic peptide analogs and conjugates thereof” (Sirenas LLC, priority 2015, dated 2019).
Read-outs that look alike come from different tables or passages of the source. Numbered stars: 1 amine (or outer) side, 2 acyl side, 3 side chain; on linkers, the order of the positions; unused ones are H or OH. Bridge positions count the residues as written; N and C are the ends. Square brackets hold non-standard residues; d marks the D form. Peptide text beside a SMILES is read from it. ξ: configuration not given here. X4 = C/C=C(\C)[C@@H](N[*:1])[C@@H](C)[C@H](O)C/C=C(\C)C(=O)O[C@H](CC(C)C)C(=O)[*:2]; X6 = C/C=C(\C)[C@@H](O[*:2])[C@@H](C)[C@H](C/C=C(\C)C(=O)[*:1])OCSC; X2 = C/C(=C\CCC[C@@H](O[*:2])C(C)C)C(=O)[*:1]; X10 = C/C(=C\CCCCO[*:2])C(=O)[*:1]; X11 = C/C(=C\CCO[*:2])C(=O)[*:1]; X9 = C/C(=C\CCCO[*:2])C(=O)[*:1]; aIle = CC[C@@H](C)[C@H](N)C(=O)O; dNMeF = CN[C@H](Cc1ccccc1)C(=O)O; Ile(3ξ) = CCC(C)[C@H](N)C(=O)O; dHica = CC(C)C[C@@H](O)C(=O)O; dHiv = CC(C)[C@@H](O)C(=O)O; NMeA = CN[C@@H](C)C(=O)O; dAbu = CC[C@@H](N)C(=O)O; dNMeA = CN[C@H](C)C(=O)O; Aib = CC(C)(N)C(=O)O; Sar = CNCC(=O)O

Key:
[1] = system: BT-474 human mammary gland ductal carcinoma cells; experiment: Inhibitory response of test compounds against BT-474 cells (Cell Titer-Glo, 72 h); assay type: cell-based
Procedure: (§1) BT-474 human mammary gland ductal carcinoma cells were seeded in a clear polystyrene 96-well microculture plate (Corning® Costar® 96-well flat bottom plate, Cat.#3997) in a total volume of 90 μL/well. After 24 hours of incubation in a humidified incubator at 37° C. with 5% CO2 and 95% air, 10 μL of 10×, serially diluted test agents in growth medium were added to each well (10 pt dose response curve, highest concentration 10 μM of test agent). After 72 hours of culture in a humidified incubator at 37° C., in an atmosphere of 5% CO2 and 95% air, the plated cells and Cell Titer-Glo® (Promega G7571) reagents were brought to room temperature to equilibrate for 30 minutes. 100 μL of Cell Titer-Glo® reagent was added to each well. The plate was shaken for two minutes and then left to equilibrate for ten minutes. The media/Cell Titer-Glo® reagent was transferred to a white polystyrene 96-well microculture plate (Corning® Costar® 96-well flat bottom plate, Cat.#3917) before reading luminescence on a Tecan GENios microplate reader.
(§2) Percent inhibition of cell growth was calculated relative to untreated control wells. The IC50 value for the test agents was determined using Prism 6.05 by curve-fitting of the data using the following four parameter-logistic equation:
(§3) [formula] where Top is the maximal % of control absorbance, Bottom is the minimal % of control absorbance at the highest agent concentration, Y is the % of control absorbance, X is the agent concentration, IC50 is the concentration of agent that inhibits cell growth by 50% compared to the control cells, and n is the slope of the curve.

HCC1954 cells = experiment: Inhibitory response of test compounds against HCC1954 cells (method analogous to BT-474); assay type: cell-based; details: Homo sapiens
Procedure: as §1, §2, §3
Inhibitory response of test compounds against HCC1954 cells was determined using a method analogous to that used for BT-474 cells.

Structure (SMILES)	IC50 ([1]; Homo sapiens) [µM]	other results
CCC(C)[C@@H]1NC(=O)CN(C)C(=O)[C@@H](Cc2ccccc2)N(C)C(=O)[C@H](C)NC(=O)[C@@H](CC(C)C)OC(=O)/C(C)=C/CCC[C@H](C(C)C)OC(=O)[C@@H](C)N(C)C1=O (stereo partly drawn) [Compound 89] ([dHica]A[dNMeF][Sar][Ile(3ξ)][dNMeA]; linker N-C via X2)	0.02 to 0.2	IC50 (HCC1954 cells): 0.2 to 10 µM
C/C=C(\C)[C@H]1NC(=O)[C@@H](C)NC(=O)[C@H](C(C)CC)NC(=O)CN(C)C(=O)[C@@H](Cc2ccccc2)N(C)C(=O)[C@H](C)NC(=O)[C@@H](CC(C)C)OC(=O)/C(C)=C/C[C@@H](O)[C@@H]1C (stereo partly drawn) [Compound 19] (cyclo(A[dNMeF][Sar][Ile(3ξ)][dA][X4]))	> 10	IC50 ([1]; Homo sapiens, 72 h, Cell Titer-Glo, highest concentration 10 μM): > 10 µM
C/C=C(\C)[C@H]1OC(=O)[C@@H](CCCCN)NC(=O)[C@H]([C@H](C)CC)NC(=O)CN(C)C(=O)[C@@H](Cc2ccccc2)N(C)C(=O)[C@H](C)NC(=O)[C@@H](CC(C)C)NC(=O)/C(C)=C/C[C@H](OCSC)[C@@H]1C [Compound 83] ([dL]A[dNMeF][Sar][aIle][dK]; linker N-C via X6)	> 10	IC50 (HCC1954 cells): > 10 µM
C/C=C(\C)[C@H]1OC(=O)[C@@H](C)NC(=O)[C@H]([C@H](C)CC)NC(=O)CN(C)C(=O)[C@@H](Cc2ccccc2)N(C)C(=O)[C@H](C)NC(=O)[C@@H](CC(C)C)OC(=O)/C(C)=C/C[C@H](OC(=O)NCCCOCCOCCOCCCNC(=O)c2ccc(/C(C)=N\NC(=O)CCCCCN3C(=O)C=CC3=O)cc2)[C@@H]1C [Compound L13]	–	IC50 [1]: 0.02 to 0.2 µM
CCC(C)[C@@H]1NC(=O)CN(C)C(=O)[C@@H](Cc2ccccc2)N(C)C(=O)[C@H](C)NC(=O)[C@@H](CC(C)C)OC(=O)/C(C)=C/CCOC(=O)[C@@H](C)NC1=O (stereo partly drawn) [Compound 12] ([dHica]A[dNMeF][Sar][Ile(3ξ)][dA]; linker N-C via X11)	> 10	–
CCC(C)[C@@H]1NC(=O)CN(C)C(=O)[C@@H](Cc2ccccc2)N(C)C(=O)[C@H](C)NC(=O)[C@@H](CC(C)C)OC(=O)/C(C)=C/CCCCOC(=O)[C@@H](CC)NC1=O (stereo partly drawn) [Compound 77] ([dHica]A[dNMeF][Sar][Ile(3ξ)][dAbu]; linker N-C via X10)	> 10	–
CCC(C)[C@@H]1NC(=O)CN(C)C(=O)[C@@H](Cc2ccccc2)N(C)C(=O)[C@H](C)NC(=O)[C@@H](CC(C)C)OC(=O)/C(C)=C/CCCCOC(=O)[C@H](C)NC1=O (stereo partly drawn) [Compound 17] ([dHica]A[dNMeF][Sar][Ile(3ξ)]A; linker N-C via X10)	0.2 to 10	–
CCC(C)[C@@H]1NC(=O)CN(C)C(=O)[C@@H](Cc2ccccc2)N(C)C(=O)[C@H](C)NC(=O)[C@@H](CC(C)C)OC(=O)/C(C)=C/CCCOC(=O)[C@H](C)N(C)C1=O (stereo partly drawn) [Compound 9] ([dHica]A[dNMeF][Sar][Ile(3ξ)][NMeA]; linker N-C via X9)	> 10	–
CCC(C)[C@@H]1NC(=O)CN(C)C(=O)[C@@H](Cc2ccccc2)N(C)C(=O)[C@H](C)NC(=O)[C@@H](C(C)C)OC(=O)/C(C)=C/CCCCOC(=O)C(C)(C)NC1=O (stereo partly drawn) [Compound 81] ([dHiv]A[dNMeF][Sar][Ile(3ξ)][Aib]; linker N-C via X10)	0.2 to 10	–
CCC(C)[C@@H]1NC(=O)CN(C)C(=O)[C@@H](Cc2ccccc2)N(C)C(=O)[C@H](C)NC(=O)[C@@H](CC(C)C)OC(=O)/C(C)=C/CCCOC(=O)[C@H](CCCCN)NC1=O (stereo partly drawn) [Compound 60] ([dHica]A[dNMeF][Sar][Ile(3ξ)]K; linker N-C via X9)	> 10	–
CCC(C)[C@@H]1NC(=O)CN(C)C(=O)[C@@H](Cc2ccccc2)N(C)C(=O)[C@H](C)NC(=O)[C@@H](CC(C)C)OC(=O)/C(C)=C/CCCOC(=O)[C@H](C)NC1=O (stereo partly drawn) [Compound 4] ([dHica]A[dNMeF][Sar][Ile(3ξ)]A; linker N-C via X9)	> 10	–
CCC(C)[C@@H]1NC(=O)CN(C)C(=O)[C@@H](Cc2ccccc2)N(C)C(=O)[C@H](C)NC(=O)[C@@H](C(C)C)OC(=O)/C(C)=C/CCCCOC(=O)[C@@H](CC)NC1=O (stereo partly drawn) [Compound 80] ([dHiv]A[dNMeF][Sar][Ile(3ξ)][dAbu]; linker N-C via X10)	> 10	–
CCC(C)[C@@H]1NC(=O)CN(C)C(=O)[C@@H](Cc2ccccc2)N(C)C(=O)[C@H](C)NC(=O)[C@@H](CC(C)C)OC(=O)/C(C)=C/CCCOC(=O)[C@@H](C)N(C)C1=O (stereo partly drawn) [Compound 10] ([dHica]A[dNMeF][Sar][Ile(3ξ)][dNMeA]; linker N-C via X9)	> 10	–
C/C=C(\C)[C@H]1OC(=O)[C@@H](C)NC(=O)[C@H](C(C)CC)NC(=O)CN(C)C(=O)[C@@H](Cc2ccccc2)N(C)C(=O)[C@H](C)NC(=O)[C@@H](CC(C)C)OC(=O)/C(C)=C/C[C@H](O)[C@H]1C (stereo partly drawn) [Compound 20]	0.2 to 10	IC50 ([1]; Homo sapiens, 72 h, Cell Titer-Glo): 0.389 µM
